Key:
[1] = tested on: Coronary artery; assay: Vasodilating activity: increase in coronary blood flow in anesthetized dogs; type: in vivo, Hybrid adult dogs; conditions: i.v., n = 3 anesthetized dogs, vs. prior to administration
Method: (§1) A suspension of the compounds produced in the above examples in 0.5% HCO 60 solution was administered through the lateroradial dermal vein. […] As a control drug was employed Cinnepazied (1-[(1-pyrrolidinylcarbonyl)methyl]-4-(3,4,5-trimethyoxycinnamoyl)piperazine).

[2] = tested on: Vertebral artery; assay: Vasodilating activity: increase in vertebral blood flow in anesthetized dogs; type: in vivo, Hybrid adult dogs; conditions: i.v., n = 3 anesthetized dogs, vs. prior to administration
Method: as §1

| SMILES | Increase in blood flow (Δ% ± SE), Coronary artery ([1]; 0.3 mg/kg) | Increase in blood flow (Δ% ± SE), Coronary artery ([1]; 1.0 mg/kg) | Increase in blood flow (Δ% ± SE), Vertebral artery ([2]; 0.3 mg/kg) | Increase in blood flow (Δ% ± SE), Vertebral artery ([2]; 1.0 mg/kg) |
| --- | --- | --- | --- | --- |
| COc1cc(C=CC(=O)N2CCN(CC(=O)N3CCCC3)CC2)cc(OC)c1OC [Cinnepazid, 1-[(1-pyrrolidinylcarbonyl)methyl]-4-(3,4,5-trimethyoxycinnamoyl)piperazine, reference compound] | 2.1 ± 0.8 Δ% | 10.0 ± 0.5 Δ% | 1.5 ± 0.4 Δ% | 5.6 ± 0.2 Δ% |
| COc1cc(/C=C/C(=O)NCCO[N+](=O)[O-])cc(OC)c1OC [Example 2, N-(β-hydroxyethyl)-3,4,5-trimethoxycinnamic acid amide nitrate] | 3.8 ± 0.5 Δ% | 22.9 ± 1.5 Δ% | 35.0 ± 1.7 Δ% | 58.3 ± 5.3 Δ% |
| COc1cc(/C=C/C=C/C(=O)NCCO[N+](=O)[O-])cc(OC)c1OC [Example 1, N-(β-hydroxyethyl)-5-(3,4,5-trimethoxyphenyl)-2,4-pentadienoic acid amide nitrate] | 3.6 ± 0.2 Δ% | 28.6 ± 1.9 Δ% | 50.0 ± 2.4 Δ% | 83.3 ± 7.5 Δ% |

From US4780560A, “Nitrate derivatives and vasodilators containing the same” (priority 1986, dated 1988)
